Where two headings read alike, the source gives them in different places.
What was measured:
human KOR [1] = biological target: T1, human KOR (Homo sapiens, UniProt P41145); assay: [35S]GTPγS binding assay, antagonist study: inhibition of U69,593-induced stimulation, CHO-hKOR membranes; format: biochemical; parameters: dose or concentration left out as unconfirmed; settings: read-out: inhibition of U69,593-induced stimulation of [35S]GTPγS binding, Inhibition
human MOR = biological target: T2, human MOR (Homo sapiens, UniProt P35372); format: binding
T2 construct: expressed in transfected cells; host or cells: CHO cells (CHO-hMOR), gift of Lawrence Toll, SRI International

human KOR [2] = biological target: T1, human KOR; assay: PathHunter β-arrestin2 recruitment assay, U2OS-hKOR-β-arrestin2 cells; format: cell-based; settings: for EC50: U2OS cells coexpressing hKOR and β-arrestin2, tested up to 10 μM, read-out: β-arrestin2 recruitment EC50 (dash symbol)
human KOR [3] = biological target: T1, human KOR; assay: [35S]GTPγS binding assay (G protein activation), CHO-hKOR cell membranes; format: biochemical; settings: for Emax: read-out: G protein activation Emax
human DOR = biological target: T3, human DOR (Homo sapiens, UniProt P41143); assay: Radioligand competitive binding assay with [3H]DPDPE, membranes from CHO-hDOR cells; settings: compound at 10 μM
T3 construct: expressed in transfected cells; host or cells: CHO cells (CHO-hDOR), gift of Lawrence Toll, SRI International

human KOR [4] = biological target: T1, human KOR; assay: Radioligand competitive binding assay with [3H]U69,593, membranes from CHO-hKOR cells; settings: for Ki: read-out: binding affinity Ki; for inhibition at 10 µM: read-out: inhibition of [3H]U69,593 binding at the KOR
human KOR [5] = biological target: T1, human KOR; assay: [35S]GTPγS binding assay, antagonist study: inhibition of U69,593-induced stimulation, CHO-hKOR membranes; format: biochemical; settings: U69,593 1 μM
human KOR [6] = biological target: T1, human KOR; assay: as above; format: biochemical; settings: U69,593 1 μM; read-out: inhibition of U69,593-induced stimulation of [35S]GTPγS binding, Inhibition
KOR = settings: cited from earlier work

Row | SMILES | binding at the MOR (human MOR) | β-arrestin2 recruitment upon activation of the KOR (in words) (human KOR [2]) | EC50 (human KOR [2]) | EC50 (human KOR [3]) | binding at the DOR (human DOR) | Ki (human KOR [4]) | also measured
1 | Oc1ccc2c3c1O[C@H]1c4[nH]c5c(c4C[C@@]4(O)[C@@H](C2)N(CC2CC2)CC[C@]314)C[C@@]1(O)[C@H]2Cc3ccc(O)c4c3[C@@]1(CCN2CC1CC1)[C@H]5O4 [nor-BNI, nor-binaltorphimine, reference compound] |  |  |  |  |  |  | inhibition (human KOR [1]): 92 ± 6%
2 | Cc1cc2n(n1)C1(CCN(C(=O)c3cccc(F)c3)CC1)CC(=O)N2CC1CC1 [SalA-VS-08] | no substantial binding | failed to induce β-arrestin2 recruitment | > 10 µM | 0.854 ± 0.06 µM | no substantial binding | 0.0685 ± 0.0055 µM | lower agonist potency at the KOR compared to SalA-VS-07 (human KOR [3]): 5 fold; Emax (human KOR [3]): 108 ± 8%; increased affinity at the KOR than SalA-VS-07 (human KOR [4]): about 6 fold; inhibition at 10 µM (human KOR [4]): > 50%
3 | Cc1cc2n(n1)C1(CCN(C(=O)c3ccc(Cl)cc3)CC1)CC(=O)N2CC1CC1 [SalA-VS-07] | no substantial binding | failed to induce β-arrestin2 recruitment | > 10 µM | 0.181 ± 0.049 µM | no substantial binding | 0.423 ± 0.097 µM | Emax (human KOR [3]; relative to maximal effect of U69,593 (as 100%)): 48 ± 7%; IC50 (human KOR [5]): 1.27 ± 0.334 µM; inhibition at 10 µM (human KOR [4]; compound at 10 μM): > 50%; inhibition (human KOR [6]): 52 ± 4%
4 | CCO[C@@]12Cc3c([nH]c4ccccc34)[C@]3(C)Oc4c(O)ccc5c4[C@@]31CCN(CC1CC1)C2C5 [HS378, reference compound] |  |  |  |  | significant binding |  | 
5 | COC(=O)[C@@H]1C[C@H](O)C(=O)[C@H]2[C@@]1(C)CC[C@H]1C(=O)O[C@H](c3ccoc3)C[C@]21C [SalB, Salvinorin B] |  |  |  |  |  |  | activity at the KOR (in words) (KOR): inactive
6 | Cc1cc2n(n1)C1(CCN(C(=O)c3ccncc3)CC1)CC(=O)N2CC1CC1 [SalA-VS-09] |  |  |  |  |  |  | KOR activity (in words) (human KOR [4]; binding screen at 10 μM): inactive

From publication PMC11345774, “Discovery of Novel, Selective, and Nonbasic Agonists for the Kappa-Opioid Receptor Determined by Salvinorin A-Based Virtual Screening” (Journal of Medicinal Chemistry, 2024)
